Results on 7 compounds are retold here after PMC10999543, “Identification of kinase modulators as host-directed therapeutics against intracellular methicillin-resistant Staphylococcus aureus” (Frontiers in Cellular and Infection Microbiology, 2024).

Like-named read-outs stand apart in the source and are kept apart here.

The test system of one data set is intracellular MRSA. It counts as cell-based, Staphylococcus aureus. The conditions noted are these: for %GFP+ rep 1 / z-scoreMRSA+ rep 1: replicate 1; for %GFP+ rep 2 / z-scoreMRSA+ rep 2: replicate 2; for %GFP+ rep 3 / z-scoreMRSA+ rep 3: replicate 3; for z-scoreMRSA+ mean: mean of 3 replicates. A digest of the protocol: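 HeLa cells infected with GFP-MRSA (MOI ~6.8), gentamicin-cleared, then incubated overnight at 37°C with inhibitors plus 5 µg/ml gentamicin; DMSO as negative control, triplicates. Flow cytometry gave % GFP-positive cells and cell count (viability surrogate); hits by plate z-score (MRSA ≤ -2, HeLa count ≥ -3).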

The next data set deals with HeLa cells. Briefly: Compound screen by flow cytometry: HeLa cell count as surrogate readout of cell viability (z-scoreHeLa). The class given is cell-based, human. The settings on record: for cell count rep 1 / z-scoreHeLa rep 1: replicate 1; for cell count rep 2 / z-scoreHeLa rep 2: replicate 2; for cell count rep 3 / z-scoreHeLa rep 3: replicate 3; for z-scoreHeLa mean: mean of 3 replicates. An outline of the steps:
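HeLa cells were infected with GFP-MRSA (mean MOI 6.8 ± 4.6) for 1 h, and extracellular bacteria were killed with 30 µg/ml gentamicin. Cells were then incubated overnight with kinase inhibitors in 5 µg/ml gentamicin, in triplicate against DMSO controls. Flow-cytometric cell count served as a viability surrogate, expressed as a plate z-score.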
Background: Flow cytometry measures light scatter and fluorescence of single cells or particles in a stream.

[1] abbreviates: PKIS compound screen raw data, MRSA-infected HeLa cells.
The mark [2] stands for this setting: Yes/No: effect without cell death.
Setting [3] is: compound screen, MRSA-infected HeLa cells.
The mark [4] stands for this setting: PKIS compound screen raw data, HeLa cell count.
Where [5] appears, read: compound screen, HeLa cell count.
[6] abbreviates: PKIS compounds raw data, MRSA-infected HeLa cells.
The mark [7] stands for this setting: PKIS compounds raw data, HeLa cell count.
The mark [8] stands for this setting: PKIS compound screen, Yes/No call.
[9] abbreviates: PKIS compound screen, Yes/No call (effect without cell death).
Setting [10] is: PKIS compound screen, MRSA-infected HeLa cells.
[11] abbreviates: PKIS compound screen, HeLa cell count.

With `CN1CCN(Cc2ccc(NC(=O)Nc3ccc(N(C)c4ccnc(Nc5ccc(CS(C)(=O)=O)cc5)n4)cc3)cc2)CC1` [GW827654A], in the data set with intracellular MRSA (setting [1]), the “%GFP+ rep 1” value is 24.8%, the “%GFP+ rep 2” value turned out to be 24.9% and the “%GFP+ rep 3” value worked out at 25.0%. The effect entry in the data set on intracellular MRSA (Yes/No call from z-scoreMRSA+) is recorded as “No”. Also, the hit result with intracellular MRSA (setting [2]) was “No”. In the data set on intracellular MRSA (setting [3]), the “z-scoreMRSA+ mean” value is given as 1.38, the “z-scoreMRSA+ rep 1” value turned out to be 1.61, the “z-scoreMRSA+ rep 2” value worked out at 1.50 and the “z-scoreMRSA+ rep 3” value stood at 1.03. In the data set on HeLa cells (setting [4]), the “cell count rep 1” value is 30631, the “cell count rep 2” value was found to be 31592 and the “cell count rep 3” value is 23281. Moreover, the cell death entry in the data set with HeLa cells (Yes/No call from z-scoreHeLa) is given as “No”. In the data set on HeLa cells (setting [5]), the z-scoreHeLa mean turned out to be 0.67, the “z-scoreHeLa rep 1” value came to 0.07, the “z-scoreHeLa rep 2” value worked out at 1.08 and the “z-scoreHeLa rep 3” value came out at 0.85.

For the compound `Nc1ncnc2occ(-c3ccc(NC(=O)Nc4cc(C(F)(F)F)ccc4F)cc3)c12` [GW770249X], in the data set on intracellular MRSA (setting [6]), the “%GFP+ rep 1” value is 10.7%, the “%GFP+ rep 2” value was determined as 11.5% and the “%GFP+ rep 3” value was 11.5%. Further, in the data set with intracellular MRSA (Yes/No call from z-scoreMRSA+), the effect entry is listed as “No”. Besides, the hit entry in the data set with intracellular MRSA (setting [2]) was “No”. In the data set on intracellular MRSA (setting [3]), the “z-scoreMRSA+ mean” value was -0.92, the “z-scoreMRSA+ rep 1” value is given as -0.79, the “z-scoreMRSA+ rep 2” value is recorded as -0.67 and the “z-scoreMRSA+ rep 3” value is -1.30. Further, in the data set with HeLa cells (setting [7]), the “cell count rep 1” value stood at 2336, the “cell count rep 2” value was 2249 and the “cell count rep 3” value was found to be 3259. Further, in the data set with HeLa cells (Yes/No call from z-scoreHeLa), the cell death result was “No”. Also, in the data set with HeLa cells (setting [5]), the z-scoreHeLa mean is given as -1.83, the “z-scoreHeLa rep 1” value is recorded as -2.21, the “z-scoreHeLa rep 2” value was -1.53 and the “z-scoreHeLa rep 3” value is listed as -1.77.

As for `CCNC(=O)O[C@H]1CN[C@H](C#Cc2cc3ncnc(Nc4ccc(OCc5cccc(F)c5)c(Cl)c4)c3s2)C1` [GSK192082A], in the data set on intracellular MRSA (setting [6]), the “%GFP+ rep 1” value stood at 6.9%, the “%GFP+ rep 2” value stood at 7.5% and the “%GFP+ rep 3” value came to 8.8%. In the data set on intracellular MRSA (Yes/No call from z-scoreMRSA+), the effect result is “Yes”. Moreover, in the data set with intracellular MRSA (setting [2]), the hit entry is listed as “Yes”. Moreover, in the data set on intracellular MRSA (setting [3]), the “z-scoreMRSA+ mean” value is -2.04, the “z-scoreMRSA+ rep 1” value is on record as -2.01, the “z-scoreMRSA+ rep 2” value is on record as -2.02 and the “z-scoreMRSA+ rep 3” value was -2.09. For the same compound, in the data set on HeLa cells (setting [7]), the “cell count rep 1” value amounted to 3041, the “cell count rep 2” value turned out to be 2947 and the “cell count rep 3” value was 5819. The cell death result in the data set with HeLa cells (Yes/No call from z-scoreHeLa) is “No”. For the same compound, in the data set with HeLa cells (setting [5]), the z-scoreHeLa mean is -1.04, the “z-scoreHeLa rep 1” value was -1.57, the “z-scoreHeLa rep 2” value was -1.00 and the “z-scoreHeLa rep 3” value was -0.55.

Consider `O=C(Nc1n[nH]c2cc(-c3ccccc3)ccc12)C1CC1` [SB-732941], for which the effect result in the data set with intracellular MRSA (setting [8]) is “No”. The hit entry with intracellular MRSA (setting [9]) is recorded as “No”. Also, in the data set with intracellular MRSA (PKIS compound screen), the “z-scoreMRSA+ mean” value was -0.19, the “z-scoreMRSA+ rep 1” value is -0.15, the “z-scoreMRSA+ rep 2” value was 0.30 and the “z-scoreMRSA+ rep 3” value was -0.74. Moreover, in the data set on intracellular MRSA (setting [6]), the “%GFP+ rep 1” value stood at 12.7%, the “%GFP+ rep 2” value is on record as 14.4% and the “%GFP+ rep 3” value is recorded as 13.4%. Also, the cell death entry in the data set with HeLa cells (setting [8]) is recorded as “No”. In the data set on HeLa cells (PKIS compound screen), the z-scoreHeLa mean turned out to be 0.28, the “z-scoreHeLa rep 1” value was 0.15, the “z-scoreHeLa rep 2” value was 0.37 and the “z-scoreHeLa rep 3” value was 0.31. In the data set with HeLa cells (setting [7]), the “cell count rep 1” value stood at 4945, the “cell count rep 2” value was determined as 4760 and the “cell count rep 3” value amounted to 7601.

On to `O=C(c1ccc(-c2cc(-c3c[nH]nc3-c3ccccn3)ccn2)cc1)N1CCCC1` [GW792479X], for which, in the data set on intracellular MRSA (setting [1]), the “%GFP+ rep 1” value was found to be 20.2%, the “%GFP+ rep 2” value is given as 21.2% and the “%GFP+ rep 3” value was determined as 21.9%. Further, the effect result in the data set on intracellular MRSA (Yes/No call from z-scoreMRSA+) is recorded as “No”. Moreover, the hit result with intracellular MRSA (setting [2]) is “No”. Besides, in the data set on intracellular MRSA (setting [3]), the “z-scoreMRSA+ mean” value came to 0.35, the “z-scoreMRSA+ rep 1” value worked out at 0.38, the “z-scoreMRSA+ rep 2” value came out at 0.49 and the “z-scoreMRSA+ rep 3” value is on record as 0.18. In addition, in the data set with HeLa cells (setting [4]), the “cell count rep 1” value was 29405, the “cell count rep 2” value came to 27776 and the “cell count rep 3” value was 26310. Also, the cell death result in the data set on HeLa cells (Yes/No call from z-scoreHeLa) is reported as “No”. In addition, in the data set on HeLa cells (setting [5]), the z-scoreHeLa mean is recorded as 0.58, the “z-scoreHeLa rep 1” value is -0.13, the “z-scoreHeLa rep 2” value came to 0.43 and the “z-scoreHeLa rep 3” value worked out at 1.44.

Regarding `COc1cc(Nc2ncc3c(C)nc(-c4cc5ccccc5[nH]4)n3n2)cc(OC)c1OC` [GW869516X], the effect entry in the data set on intracellular MRSA (setting [8]) is on record as “No”. The hit result with intracellular MRSA (setting [9]) is “No”. In the data set on intracellular MRSA (PKIS compound screen), the “z-scoreMRSA+ mean” value is -0.71, the “z-scoreMRSA+ rep 1” value is -0.87, the “z-scoreMRSA+ rep 2” value is -0.43 and the “z-scoreMRSA+ rep 3” value was -0.83. Also, in the data set with intracellular MRSA (setting [6]), the “%GFP+ rep 1” value was 22.6%, the “%GFP+ rep 2” value is reported as 23.8% and the “%GFP+ rep 3” value is listed as 22.8%. Also, in the data set on HeLa cells (setting [8]), the cell death entry is recorded as “No”. For the same compound, in the data set with HeLa cells (PKIS compound screen), the z-scoreHeLa mean is listed as 1.43, the “z-scoreHeLa rep 1” value is listed as 1.29, the “z-scoreHeLa rep 2” value was 1.41 and the “z-scoreHeLa rep 3” value stood at 1.60. Besides, in the data set with HeLa cells (setting [7]), the “cell count rep 1” value is 8188, the “cell count rep 2” value was determined as 8134 and the “cell count rep 3” value is reported as 8115.

As to `COc1cc(Nc2nccc(N3CCC(NC(=O)C(C)c4ccc(Cl)cc4)C3)n2)cc(OC)c1OC` (stereo not drawn) [GSK1379757A], in the data set with intracellular MRSA (setting [1]), the “%GFP+ rep 1” value was 24.2%, the “%GFP+ rep 2” value turned out to be 23.0% and the “%GFP+ rep 3” value is on record as 24.9%. In addition, in the data set on intracellular MRSA (setting [10]), the “z-scoreMRSA+ mean” value came out at 1.14, the “z-scoreMRSA+ rep 1” value worked out at 1.45, the “z-scoreMRSA+ rep 2” value worked out at 0.98 and the “z-scoreMRSA+ rep 3” value was 1.00. Besides, the effect entry with intracellular MRSA (setting [8]) was “No”. The hit entry in the data set with intracellular MRSA (setting [9]) was “No”. Also, the effect entry in the data set on intracellular MRSA (PKIS compound screen, Yes/No call on z-scoreMRSA+) is “No”. Besides, in the data set on intracellular MRSA (PKIS compound screen), the “z-scoreMRSA+ mean” value was determined as 0.73, the “z-scoreMRSA+ rep 1” value is reported as 0.77, the “z-scoreMRSA+ rep 2” value worked out at 0.76 and the “z-scoreMRSA+ rep 3” value is 0.65. Moreover, in the data set on intracellular MRSA (setting [6]), the “%GFP+ rep 1” value came to 31.0%, the “%GFP+ rep 2” value is given as 30.0% and the “%GFP+ rep 3” value worked out at 30.8%. Further, in the data set with HeLa cells (setting [4]), the “cell count rep 1” value amounted to 34106, the “cell count rep 2” value is on record as 27085 and the “cell count rep 3” value turned out to be 22729. In the data set with HeLa cells (setting [11]), the z-scoreHeLa mean was found to be 0.57, the “z-scoreHeLa rep 1” value was 0.66, the “z-scoreHeLa rep 2” value is 0.31 and the “z-scoreHeLa rep 3” value is on record as 0.74. Also, the cell death result in the data set on HeLa cells (setting [8]) is given as “No”. For the same compound, in the data set with HeLa cells (PKIS compound screen, Yes/No call on z-scoreHeLa), the cell death result is “No”. Further, in the data set with HeLa cells (PKIS compound screen), the z-scoreHeLa mean came out at 0.21, the “z-scoreHeLa rep 1” value was 0.06, the “z-scoreHeLa rep 2” value worked out at 0.29 and the “z-scoreHeLa rep 3” value came to 0.29. In the data set on HeLa cells (setting [7]), the “cell count rep 1” value stood at 6143, the “cell count rep 2” value is 6440 and the “cell count rep 3” value was 6051.
